In patent US7101667B2, “Lanthanide binding tags” (Massachusetts Institute of Technology, priority 2001, dated 2006):

Columns and labels:
[1] = Steady-state terbium fluorescence of LBT-S-peptide fusions compared to LBT1; type: physicochemical
From the text: Steady-state fluorescence experiments of the LBT-S-peptide fusions indicated minimal impact of the fusion on the terbium fluorescence compared to LBT1 (see Table 2).

[2] = Tb^3+ affinity of LBT-S-peptide fusions by isothermal titration calorimetry; type: binding
From the text: The affinity of the LBT site for terbium in the context of the fusion peptide was also unchanged when compared with the unmodified LBT sequences with affinities in the low μM range.

[3] = Tb^3+ binding affinity of the disulfide constrained LBT
Procedure: Affinity is determined by titration with lanthanide and detection using fluorescence, circular dichroism, NMR or calorimetry. In the case of tightly binding sequences, it may be necessary to employ competition experiments.
The disulfide constained LBT, ACA-[…]-CAA (known as CC2) binds to Tb^3+ with a KD of 300 nM, an order of magnitude more tightly than other reported Ca-binding peptides. (Kanellis, et al. Arch. Biochem. Biophys. 1983, 220, 530-540; Lopez, et al. Proc. Natl. Acad. Sci. USA 2002, 99, 1298-1303).

[4] = Lanthanide affinity of free LBT and HIS-LBT-Ub by calorimetry; type: binding; settings: read-out: KD for lanthanide ions
From the text: The purified LBT-protein conjugates were further studied to assess whether the fluorescence and binding properties of the LBT were preserved in the protein conjugates.

[5] = molecular target: T1, RNAse S-protein (bovine, UniProt P61823 47-150); assay: isothermal titration calorimetry
T1 construct: range 21-124; Numbers count on mature RNAse A; also called Pro-S
T1 sequence (looked up): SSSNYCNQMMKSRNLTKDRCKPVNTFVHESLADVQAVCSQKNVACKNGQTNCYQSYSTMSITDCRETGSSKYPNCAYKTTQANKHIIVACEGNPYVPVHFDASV

[6] = molecular target: LBT-PP-S-Peptide
[7] = molecular target: T2, LBT-GPPP-S-Peptide
T2 chain: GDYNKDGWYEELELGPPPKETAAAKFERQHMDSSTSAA

[8] = read-out: KD Tb^3+ S-Peptide, fusion peptide alone
[9] = read-out: KD Tb^3+ [S-Peptide/S-protein], peptide complexed with S-protein

CSCC[C@H](NC(=O)[C@H](Cc1c[nH]cn1)NC(=O)[C@H](CCC(N)=O)NC(=O)[C@H](CCCNC(=N)N)NC(=O)[C@H](CCC(=O)O)NC(=O)[C@H](Cc1ccccc1)NC(=O)[C@H](CCCCN)NC(=O)[C@H](C)NC(=O)[C@H](C)NC(=O)[C@H](C)NC(=O)[C@@H](NC(=O)[C@H](CCC(=O)O)NC(=O)[C@H](CCCCN)NC(=O)[C@@H]1CCCN1C(=O)[C@@H]1CCCN1C(=O)[C@H](CC(C)C)NC(=O)[C@H](CCC(=O)O)NC(=O)[C@H](CC(C)C)NC(=O)[C@H](CCC(=O)O)NC(=O)[C@H](CCC(=O)O)NC(=O)[C@H](Cc1ccc(O)cc1)NC(=O)[C@H](Cc1c[nH]c2ccccc12)NC(=O)CNC(=O)[C@H](CC(=O)O)NC(=O)[C@H](CCCCN)NC(=O)[C@H](CC(N)=O)NC(=O)[C@H](Cc1ccc(O)cc1)NC(=O)[C@H](CC(=O)O)NC(=O)CN)[C@@H](C)O)C(=O)N[C@@H](CC(=O)O)C(=O)N[C@@H](CO)C(=O)N[C@@H](CO)C(=O)N[C@H](C(=O)N[C@@H](CO)C(=O)N[C@@H](C)C(=O)N[C@@H](C)C(=O)O)[C@@H](C)O [LBT-PP-S-Peptide]
Fluorescence Relative to LBT1 [1]: 86%
Kd [2, 8]: 3.3 µM
Kd [2, 9]: 9.6 µM

CSCC[C@H](NC(=O)[C@H](Cc1c[nH]cn1)NC(=O)[C@H](CCC(N)=O)NC(=O)[C@H](CCCNC(=N)N)NC(=O)[C@H](CCC(=O)O)NC(=O)[C@H](Cc1ccccc1)NC(=O)[C@H](CCCCN)NC(=O)[C@H](C)NC(=O)[C@H](C)NC(=O)[C@H](C)NC(=O)[C@@H](NC(=O)[C@H](CCC(=O)O)NC(=O)[C@H](CCCCN)NC(=O)[C@@H]1CCCN1C(=O)[C@@H]1CCCN1C(=O)[C@@H]1CCCN1C(=O)CNC(=O)[C@H](CC(C)C)NC(=O)[C@H](CCC(=O)O)NC(=O)[C@H](CC(C)C)NC(=O)[C@H](CCC(=O)O)NC(=O)[C@H](CCC(=O)O)NC(=O)[C@H](Cc1ccc(O)cc1)NC(=O)[C@H](Cc1c[nH]c2ccccc12)NC(=O)CNC(=O)[C@H](CC(=O)O)NC(=O)[C@H](CCCCN)NC(=O)[C@H](CC(N)=O)NC(=O)[C@H](Cc1ccc(O)cc1)NC(=O)[C@H](CC(=O)O)NC(=O)CN)[C@@H](C)O)C(=O)N[C@@H](CC(=O)O)C(=O)N[C@@H](CO)C(=O)N[C@@H](CO)C(=O)N[C@H](C(=O)N[C@@H](CO)C(=O)N[C@@H](C)C(=O)N[C@@H](C)C(=O)O)[C@@H](C)O [LBT-GPPP-S-Peptide]
Fluorescence Relative to LBT1 [1]: 96%
Kd [2, 8]: 6.6 µM
Kd [2, 9]: 6.7 µM

ACA-DYNKDGWYEELE-CAA [CC2, cysteine constrained variant of LBT1]
Kd [3]: 0.3 µM

GDYNKDGWYEELEL [LBT1]
KD Tb^3+ S-Peptide ([2]; fusion peptide alone): low μM
Kd [4]: 5 µM

B1: LBT-GPPP-S-Peptide (peptide)
peptide: T2 chain
notes: also called LBT-S-peptide fusion; LBT tagged S-peptide analog
Kd [5]: 0.3 µM

B2: RNAse S-protein (protein)
chain: T1 sequence (looked up)
catalytic activity of the reconstituted enzymes (cleavage of a fluorescent RNA substrate) [6]: the S-protein/LBT-S-peptide construct has similar catalytic activity to the native RNAse S in the absence of Tb^+3
catalytic activity of the reconstituted enzymes (cleavage of a fluorescent RNA substrate) [7]: the S-protein/LBT-S-peptide construct has similar catalytic activity to the native RNAse S in the absence of Tb^+3
